Experimental data taken from PubChem BioAssay AID540274 (Sanford-Burnham Center for Chemical Genomics, 2011).
Calls of active or inactive are those of the source.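 Rule for the calls: active = mean IC50 below 100 µM; inactive = the rest.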

Molecular target: intestinal alkaline phosphatase Alpi (Mus musculus)
Experiment: inhibitors of murine Alpi enzyme – biochemical, ortholog specificity, luminescence, set 2, selectivity assay for human IAP inhibitor project, SAR follow-up (AID 540274)
Conditions: purified mouse IAP, CDP-Star luminescence, 30 min

SMILES	IC50
O=C(CNS(=O)(=O)c1ccc2[nH]c(=O)oc2c1)NCc1ccc2c(c1)OCO2	3.31 µM
O=C(CNS(=O)(=O)c1ccc2[nH]c(=O)oc2c1)Nc1ccc2c(c1)OCO2	5.05 µM

Next, values leading:

IC50	SMILES
23 µM	COc1ccc(NC(=O)CNS(=O)(=O)c2ccc3[nH]c(=O)oc3c2)cc1OC
> 100 µM (inactive)	N#Cc1ccc(CNC(=O)CCNS(=O)(=O)c2ccc3[nH]c(=O)oc3c2)cc1
0.219 µM	Cc1ccc(C)c(NC(=O)CCNS(=O)(=O)c2ccc3[nH]c(=O)oc3c2)c1
